Measurements as given in DBAASP.
In brackets after ≈: the same amount, converted by molar mass. Each block holds one compound with its values, some of them ahead of it.

How the values were obtained:
Test in all cases: ≥ marks a high value that may be exact or a test limit, other limits are often not marked, values filed in µg/mL are converted to µM
Acinetobacter sp. M13523 = test system: Acinetobacter sp. M13523
Acinetobacter sp. M5949 = test system: Acinetobacter sp. M5949
Acinetobacter sp. M9013 = test system: Acinetobacter sp. M9013
Acinetobacter sp. M9665 = test system: Acinetobacter sp. M9665
[1] = test system: Enterococcus faecalis ATCC 29212
[2] = test system: Enterococcus faecalis ATCC 51299
[3] = test system: Enterococcus faecalis M4899
[4] = test system: Enterococcus faecalis M6983
[5] = test system: Enterococcus faecium M2304
[6] = test system: Enterococcus faecium PZAP 95
[7] = test system: Enterococcus gallinarum M2723
[8] = test system: Escherichia coli ATCC 25922
Escherichia coli M5306 = test system: Escherichia coli M5306
Escherichia coli M7859 = test system: Escherichia coli M7859
Escherichia coli M9209 = test system: Escherichia coli M9209
Escherichia coli M9884 = test system: Escherichia coli M9884
[9] = test system: Klebsiella pneumoniae M11245
[10] = test system: Klebsiella pneumoniae M5825
[11] = test system: Klebsiella pneumoniae M9375
[12] = test system: Klebsiella pneumoniae M9491
[13] = test system: Klebsiella pneumoniae PFAV 3
[14] = test system: Pseudomonas aeruginosa ATCC 27853
[15] = test system: Pseudomonas aeruginosa M11005
[16] = test system: Pseudomonas aeruginosa PACO12
[17] = test system: Staphylococcus aureus ATCC 25923
[18] = test system: Staphylococcus aureus M6784
[19] = test system: Staphylococcus aureus P33
Staphylococcus cohnii = test system: Staphylococcus cohnii
[20] = test system: Staphylococcus epidermidis M2921
[21] = test system: Staphylococcus epidermidis M2923
[22] = test system: Staphylococcus haemolyticus M2976
[23] = test system: Staphylococcus hominis M2967
[24] = test system: Staphylococcus hominis M2973
[25] = test system: Staphylococcus saprophyticus M4070
Staphylococcus warneri = test system: Staphylococcus warneri
[26] = test system: Candida albicans ATCC 37092
[27] = test system: Staphylococcus aureus ATCC 29213
[28] = test system: Candida albicans ATCC 2002
Candida glabrata 0902 = test system: Candida glabrata 0902
[29] = test system: Cutibacterium acnes ATCC 11827
Escherichia coli 1334 = test system: Escherichia coli 1334
Escherichia coli 1342 = test system: Escherichia coli 1342
[30] = test system: Pseudomonas aeruginosa 1411
[31] = test system: Pseudomonas aeruginosa 1412
[32] = test system: Pseudomonas aeruginosa 1413
[33] = test system: Staphylococcus aureus 1303
[34] = test system: Staphylococcus aureus 1349
[35] = test system: Staphylococcus aureus ATCC 2592
Staphylococcus aureus = test system: Staphylococcus aureus
[36] = test system: Staphylococcus epidermidis
[37] = test system: Aeromonas hydrophila CGMCC 1.0927
[38] = test system: Corynebacterium glutamicum CGMCC 1.1886
[39] = test system: Staphylococcus aureus CGMCC 1.0363
[40] = test system: Vibrio alginolyticus CGMCC 1.1833
[41] = test system: Vibrio parahaemolyticus CGMCC 1.1615

- MIC (Acinetobacter sp. M13523): 27.2 µM (≈ 64 µg/mL)
- MIC (Acinetobacter sp. M5949): ≥ 109 µM
- MIC (Acinetobacter sp. M9013): 13.6 µM (≈ 32 µg/mL)
- MIC (Acinetobacter sp. M9665): ≥ 54.3 µM
- MIC [1]: 54.3 µM (≈ 128 µg/mL)
- MIC [2]: ≥ 109 µM
- MIC [3]: ≥ 109 µM
- MIC [4]: ≥ 54.3 µM
- MIC [5]: 3.39 µM (≈ 8 µg/mL)
- MIC [6]: 6.79 µM (≈ 16 µg/mL)
- MIC [7]: 6.79 µM (≈ 16 µg/mL)
- MIC [8]: 13.6 µM (≈ 32 µg/mL)
- MIC (Escherichia coli M5306): 27.2 µM (≈ 64 µg/mL)
- MIC (Escherichia coli M7859): 6.79 µM (≈ 16 µg/mL)
- MIC (Escherichia coli M9209): ≥ 54.3 µM
- MIC (Escherichia coli M9884): 13.6 µM (≈ 32 µg/mL)
- MIC [9]: 3.39 µM (≈ 8 µg/mL)
- MIC [10]: 13.6 µM (≈ 32 µg/mL)
- MIC [11]: 6.79 µM (≈ 16 µg/mL)
- MIC [12]: 27.2 µM (≈ 64 µg/mL)
- MIC [13]: ≥ 54.3 µM
- MIC [14]: 27.2 µM (≈ 64 µg/mL)
- MIC [15]: ≥ 54.3 µM
- MIC [16]: 27.2 µM (≈ 64 µg/mL)
- MIC [17]: 13.6 µM (≈ 32 µg/mL)
- MIC [18]: 13.6 µM (≈ 32 µg/mL)
- MIC [19]: 27.2 µM (≈ 64 µg/mL)
- MIC (Staphylococcus cohnii): 3.39 µM (≈ 8 µg/mL)
- MIC [20]: 3.39 µM (≈ 8 µg/mL)
- MIC [21]: 6.79 µM (≈ 16 µg/mL)
- MIC [23]: 3.39 µM (≈ 8 µg/mL)
- MIC [24]: 1.7 µM (≈ 4 µg/mL)
- MIC [25]: 3.39 µM (≈ 8 µg/mL)
- MIC (Staphylococcus warneri): 3.39 µM (≈ 8 µg/mL)
SMILES: CC[C@H](C)[C@H](NC(=O)[C@H](CCCN=C(N)N)NC(=O)[C@H](CCC(N)=O)NC(=O)[C@@H](NC(=O)[C@@H](NC(=O)[C@@H](N)CCCN=C(N)N)[C@@H](C)CC)C(C)C)C(=O)N[C@@H](CCCCN)C(=O)N[C@@H](CCCCN)C(=O)N[C@@H](Cc1c[nH]c2ccccc12)C(=O)N[C@@H](CC(C)C)C(=O)N[C@@H](CC(C)C)C(=O)N[C@@H](CCCCN)C(=O)N[C@@H](Cc1c[nH]c2ccccc12)C(=O)N[C@@H](CCCCN)C(=O)N[C@@H](CCCCN)C(=O)N[C@@H](CC(C)C)C(=O)NCC(=O)N[C@@H](Cc1ccc(O)cc1)C(N)=O [RIVQRIKKWLLKWKKLGY]
- MIC [22]: 3.39 µM (≈ 8 µg/mL)

- MIC [26]: ≥ 500 µM
- MIC [8]: > 500 µM
- MIC [27]: > 500 µM
SMILES: CC[C@H](C)[C@H](NC(=O)[C@H](CCCN=C(N)N)NC(=O)[C@@H](N)CCCN=C(N)N)C(=O)N[C@@H](CCCN=C(N)N)C(=O)N1CCC[C@H]1C(=O)N[C@@H](CCCN=C(N)N)C(=O)N1CCC[C@H]1C(=O)O [RRIRPRP]

- MIC [28]: 1.13 µM (≈ 3.54 µg/mL)
- MIC (Candida glabrata 0902): 4.54 µM (≈ 14.2 µg/mL)
- MIC [29]: 18.2 µM (≈ 57 µg/mL)
- MIC (Escherichia coli 1334): 4.54 µM (≈ 14.2 µg/mL)
- MIC (Escherichia coli 1342): 9.08 µM (≈ 28.5 µg/mL)
- MIC [8]: 2.27 µM (≈ 7.11 µg/mL)
- MIC [30]: 4.54 µM (≈ 14.2 µg/mL)
- MIC [31]: 9.08 µM (≈ 28.5 µg/mL)
- MIC [32]: 4.54 µM (≈ 14.2 µg/mL)
- MIC [14]: 4.54 µM (≈ 14.2 µg/mL)
- MIC [33]: 4.54 µM (≈ 14.2 µg/mL)
- MIC [34]: 9.08 µM (≈ 28.5 µg/mL)
- MIC [35]: 2.27 µM (≈ 7.11 µg/mL)
- MIC (Staphylococcus aureus): 2.27 µM (≈ 7.11 µg/mL)
- MIC [36]: 4.54 µM (≈ 14.2 µg/mL)
SMILES: CC[C@H](C)[C@H](NC(=O)[C@H](Cc1cnc[nH]1)NC(=O)[C@H](CO)NC(=O)CNC(=O)[C@H](CO)NC(=O)CNC(=O)[C@@H](NC(=O)[C@H](CO)NC(=O)[C@H](CCCN=C(N)N)NC(=O)[C@H](CC(C)C)NC(=O)[C@H](CCCCN)NC(=O)[C@H](CCC(N)=O)NC(=O)[C@H](CCCCN)NC(=O)[C@H](CC(C)C)NC(=O)[C@H](CCC(N)=O)NC(=O)[C@@H]1CSSC[C@H](NC(=O)[C@H](CCCCN)NC(=O)CN)C(=O)N[C@@H](CC(N)=O)C(=O)N[C@@H](C(C)C)C(=O)N[C@@H](CC(C)C)C(=O)N1)[C@@H](C)CC)C(=O)NCC(=O)N[C@@H](CO)C(=O)N[C@H](C(=O)N[C@H](C(=O)N[C@@H](CC(C)C)C(=O)N1CCC[C@H]1C(=O)N[C@@H](CCCN=C(N)N)C(=O)NCC(=O)O)C(C)C)C(C)C [GKCNVLCQLKQKLRSIGSGSHIGSVVLPRG]

- MIC [37]: 12 µM (≈ 35 µg/mL)
- MIC [38]: 12 µM (≈ 35 µg/mL)
- MIC [8]: 24 µM (≈ 70 µg/mL)
- MIC [39]: 12 µM (≈ 35 µg/mL)
- MIC [40]: ≥ 48 µM
SMILES: CSCC[C@H](NC(=O)[C@H](CO)NC(=O)[C@H](CC(C)C)NC(=O)[C@H](Cc1cnc[nH]1)NC(=O)[C@H](CO)NC(=O)[C@@H](N)CCC(N)=O)C(=O)N[C@H]1CSSC[C@@H](C(=O)N[C@@H](CCCN=C(N)N)C(=O)N[C@@H](Cc2ccccc2)C(=O)O)NC(=O)[C@@H]2CSSC[C@@H]3NC(=O)[C@@H]4CSSC[C@H](NC(=O)[C@H](C(C)C)NC(=O)[C@H](CO)NC1=O)C(=O)N[C@@H](CSSC[C@H](NC(=O)CNC(=O)[C@H](CCCCN)NC(=O)[C@H](Cc1ccc(O)cc1)NC(=O)[C@H](CC(N)=O)NC(=O)[C@H](CCCCN)NC3=O)C(=O)NCC(=O)N[C@@H](Cc1ccccc1)C(=O)N2)C(=O)N[C@@H](CC(N)=O)C(=O)N4 [QSHLSMCSVCCNCCKNYKGCGFCCRF]
- MIC [41]: ≥ 48 µM
